ChEMBL document CHEMBL3400085, “New cytochalasins from medicinal macrofungus Crodyceps taii and their inhibitory activities against human cancer cells” (Bioorg Med Chem Lett, 2015)

What was measured:
MRC5 = test: Cytotoxicity against human MRC5 cells assessed as inhibition of proliferation by SRB method; format: cell-based
[1] = Cytotoxicity against human 95-D cells assessed as inhibition of proliferation by SRB method; format: functional, cell-based
A549 = test: Cytotoxicity against human A549 cells assessed as inhibition of proliferation by SRB method; format: functional, cell-based
[2] = Cytotoxicity against human HL-7702 cells assessed as inhibition of proliferation by SRB method; format: functional, cell-based; settings: L02

Structure (SMILES) | IC50 (MRC5) [µM] | IC50 [1] [µM] | IC50 (A549) [µM] | IC50 [2] [µM]
CC1=C(C)[C@H]2[C@H](Cc3ccccc3)NC(=O)[C@]23[C@H](O)/C=C/[C@H](C)C(=O)[C@@H](C)C/C=C/[C@H]3C1=O | > 200 | 23.7 | 32.3 | 29.8
CC1=C(C)[C@H]2[C@H](Cc3ccccc3)NC(=O)[C@]23[C@H](O)/C=C/[C@H](C)C(=O)[C@@H](C)C/C=C/[C@H]3[C@@H]1O | > 200 | 26 | 17.1 | 35.7
CC1=C[C@@H]2/C=C/C[C@H](C)C(=O)[C@](C)(O)/C=C/[C@@H](O)[C@]23C(=O)N[C@@H](Cc2ccccc2)[C@@H]3[C@H]1C | > 200 | 20.7 | 19.9 | 30.9
CC1=C(C)[C@H]2[C@H](Cc3ccccc3)NC(=O)[C@]23[C@H](O)/C=C/[C@@](C)(O)C(=O)[C@@H](C)C/C=C/[C@H]3[C@@H]1O [DEACETYLCYTOCHALASIN C] | > 200 | 3.67 | 13.6 | 31.1
C=C1[C@@H](C)[C@H]2[C@H](Cc3ccccc3)NC(=O)[C@]23[C@H](O)/C=C/[C@@](C)(O)C(=O)[C@@H](C)C/C=C/[C@H]3[C@@H]1O [ZYGOSPORIN D] | > 200 | 4.04 | 16.7 | 30.2
